Data as given in patent US10947188B2, “Small molecule ferroptosis inducers” (THE TRUSTEES OF COLUMBIA UNIVERSITY IN THE CITY OF NEW YORK, priority 2016, dated 2021).
Converted amounts (≈) assume the structure as drawn.

Tested on: HT-1080 cells
Assay: Lethality of commercially available CIL41/70 structural analogs
Format: cell-based
Details: Homo sapiens, tested once in technical triplicates
Description: 1,000 cells per 36 μl were seeded in each well in 384-well plates. Lethal compounds were dissolved, and a twofold, 12-point dilution series was prepared in DMSO. Compound solutions were further diluted with media at 1:25, and 4 μl per well of the diluted solutions was added to cell cultures immediately after cells were seeded. […] When other cell-death-modulating compounds (100 nM sodium selenite, 1 μM cerivastatin, 100 μg/mL mevalonic acid) were used in cotreatments, they were supplemented to cell culture for 24 h before lethal compounds were added to cell culture, after which cells were further incubated for 24 h at 37° C. under 5% CO2. On the day of the viability measurement, we added 10 μl per well of 50% Alamar Blue diluted in media (Life Technologies) and further incubated the cells at 37° C. for 6 h. Fluorescence intensity (excitation/emission: 530/590) was measured with a Victor 3 plate reader (PerkinElmer), and the normalized viability was calculated as VL=(IL−I0)/(IV−I0), where VL, I0, IV, and IL are the normalized viability and the raw fluorescence intensities from the wells containing media, cells treated with a vehicle (negative control), and cells with the lethal compound (L), respectively. When the effect of a chemical modulator (M) on L was calculated, we instead used the equation VL|M=(IM,L−I0)/(IM,V−I0), where VL|M, IM,L and IM,V are the normalized viability, and fluorescence intensity from cells treated with […], respectively. The viability was typically measured in biological triplicate unless otherwise specified. A representative dose-response curve, the mean and standard error of normalized viability from one replicate were plotted. HT-1080 viability after modulator treatments corresponding to FIG. 3C and FIGS. 5E-5F is available in FIGS. 19A-19C.
Their lethality was tested once in HT-1080 cells in technical triplicates.

SMILES	EC50 [µg/mL]
N/C(Cc1ccc([N+](=O)[O-])cc1)=N\OC(=O)CCC1CCCCC1 [CB96]	> 20
COc1ccccc1CC(=O)O/N=C(\N)Cc1ccc(Cl)cc1Cl [CB97]	> 20
CCC(C(=O)O/N=C(\N)Cc1ccc(Cl)cc1Cl)c1ccccc1 (stereo not drawn) [CB98]	4.46 (≈ 12.2 µM)
COc1ccccc1CC(=O)O/N=C(\N)Cc1ccc([N+](=O)[O-])cc1 [CB99]	> 20
N/C(Cc1ccc(Cl)cc1Cl)=N\OC(=O)Cc1cccs1 [CB100]	> 20
COc1ccccc1OCC(=O)O/N=C(\N)Cc1ccc(Cl)cc1Cl [CB101]	> 20
Cc1cc(OCC(=O)O/N=C(\N)Cc2cccc3ccccc23)cc(C)c1Br [CB102]	> 20
N/C(Cc1ccc([N+](=O)[O-])cc1)=N\OC(=O)Cc1cccs1 [CB103]	> 20
Cc1cc(Br)ccc1OCC(=O)O/N=C(\N)Cc1ccc([N+](=O)[O-])cc1 [CB104]	> 20
N/C(Cc1cccc2ccccc12)=N\OC(=O)CCC1CCCCC1 [CB105]	> 20
Cc1cc(OCC(=O)O/N=C(\N)Cc2ccc(Cl)cc2Cl)cc(C)c1Br [CB106]	> 20
Cc1cc(Br)ccc1OCC(=O)O/N=C(\N)Cc1cccc2ccccc12 [CB107]	> 20
COc1ccccc1CC(=O)O/N=C(\N)Cc1cccc2ccccc12 [CB108]	> 20
N/C(Cc1cccc2ccccc12)=N\OC(=O)Cc1cccs1 [CB109]	> 20
Cc1cc(Br)ccc1OCC(=O)O/N=C(\N)Cc1ccc(Cl)cc1Cl [CB110]	> 20
CCC(C(=O)O/N=C(\N)Cc1cccc2ccccc12)c1ccccc1 (stereo not drawn) [CB111]	10.7 (≈ 30.9 µM)
Cc1cccc(OCC(=O)O/N=C(\N)Cc2ccc(Cl)c(Cl)c2)c1C [CB112]	> 20
CC(C)(Oc1ccc(Cl)cc1)C(=O)O/N=C(\N)Cc1cccc2ccccc12 [CB113]	> 20
N/C(Cc1cccc2ccccc12)=N\OC(=O)Cc1ccccc1[N+](=O)[O-] [CB114]	> 20
N/C(Cc1ccc([N+](=O)[O-])cc1)=N\OC(=O)CC(c1ccccc1)c1ccccc1 [CB115]	2.42 (≈ 6 µM)
CC(C)(Oc1ccc(Cl)cc1)C(=O)O/N=C(\N)Cc1ccc(Cl)c(Cl)c1 [CB116]	5.49 (≈ 13.2 µM)

SMILES	EC50 [µg/mL]
CC(C)(Oc1ccc(Cl)cc1)C(=O)O/N=C(\N)Cc1ccc([N+](=O)[O-])cc1 [CB117]	> 20
Cc1cccc(OCC(=O)O/N=C(\N)Cc2ccc([N+](=O)[O-])cc2)c1C [CB118]	> 20
CC(C)(Oc1ccc(Cl)cc1)C(=O)O/N=C(\N)Cc1ccc(Cl)cc1Cl [CB119]	> 20
Cc1cccc(OCC(=O)O/N=C(\N)Cc2ccc(Cl)cc2Cl)c1C [CB120]	> 20
Cc1cc(C)c(C)c(OCC(=O)O/N=C(\N)Cc2cccc3ccccc23)c1 [CB121]	> 20
COc1ccccc1C/C(N)=N/OC(=O)CC(c1ccccc1)c1ccccc1 [CB122]	0.98 (≈ 2.52 µM)
COc1ccccc1C/C(N)=N/OC(=O)COc1cccc(C)c1C [CB123]	> 20
COc1ccc(CC(=O)O/N=C(\N)Cc2ccc(OC)c(OC)c2)cc1 [CB124]	> 20
Cc1cc(Cl)ccc1OCC(=O)O/N=C(\N)Cc1ccc([N+](=O)[O-])cc1 [CB125]	> 20
COc1ccccc1C/C(N)=N/OC(=O)COc1cc(C)cc(C)c1C [CB126]	9.3 (≈ 26.1 µM)
N/C(Cc1ccc(Cl)cc1Cl)=N\OC(=O)Cc1ccccc1 [CB127]	> 20
N/C(Cc1ccc(Cl)cc1Cl)=N\OC(=O)CC1CCCCC1 [CB128]	> 20
CCc1ccc(OCC(=O)O/N=C(\N)Cc2ccc([N+](=O)[O-])cc2)c(Br)c1 [CB129]	> 20
CC(C)c1ccc(OCC(=O)O/N=C(\N)Cc2ccc([N+](=O)[O-])cc2)c(Br)c1 [CB130]	> 20
N/C(Cc1cccc2ccccc12)=N\OC(=O)CSc1ccccc1 [CB131]	> 20
Cc1ccc(CC(=O)O/N=C(\N)Cc2cccc3ccccc23)cc1 [CB132]	> 20
N/C(Cc1ccc(Cl)cc1Cl)=N\OC(=O)CSc1ccccc1 [CB133]	> 20
CC(Oc1cccc(Cl)c1)C(=O)O/N=C(\N)Cc1cccc2ccccc12 (stereo not drawn) [CB134]	> 20
N/C(Cc1ccc([N+](=O)[O-])cc1)=N\OC(=O)CCCOc1ccccc1 [CB135]	> 20
CCC(Oc1ccccc1)C(=O)O/N=C(\N)Cc1ccc([N+](=O)[O-])cc1 (stereo not drawn) [CB136]	> 20
CC(Oc1cccc(Cl)c1)C(=O)O/N=C(\N)Cc1ccc(Cl)cc1Cl (stereo not drawn) [CB137]	> 20
